The values that follow are results of earlier work, collected in patent US7060695B2, “Method to prevent vision loss” (QLT, Inc., priority 2001, dated 2006).

This data set deals with CNV. The following applies: approved protocol, re-treatment as frequently as every three months if CNV leakage.

For verteporfin, the closure of neovasculature result was “closes neovasculature” and the “loss of visual acuity compared to placebo controls” value was “prevents loss of visual acuity compared to placebo controls”.
